# Like-named read-outs stand apart in the source and are kept apart here.
# Key:
# [1] = Octanol/water partition coefficient (OECD Guideline No. 107); type: physicochemical; conditions: 3 replications, read-out: log P (logarithm of octanol/water partition coefficient)
# Description: (§1) Melting point was determined with an Electrothermal 9200 apparatus (UK). Moreover, aqueous solubility and octanol/water partition coefficient of the synthesized derivative was determined according to Organisation for Economic Co-operation and Development (OECD) Guideline for Testing of Chemicals, No.105 and No. 107, respectively ([6]-[8]).
# [2] = Aqueous solubility (OECD Guideline No. 105); type: physicochemical; conditions: thermodynamic from solid; water; 3 replications
# Description: as §1
# COX-2 = conditions: in comparison with celecoxib; cited from earlier work
# [3] = Forced degradation stability study (ICH guideline); type: physicochemical; design: Forced tests results, Mean ±SD: unit not given here; conditions: for Forced tests results, Mean ±SD: n=3
# Description: The stability study was conducted according to forced degradation protocol ICH guideline for new drug substance ([9]-[11]). The study evaluated the stability of AZGH 102 at acidic, basic, and neutral medium. Moreover, the effect of oxidative condition (H2O2, 3 and 30%), thermal degradation at solid state and photolysis on the stability of AZGH 102 was evaluated.
# [4] = Pharmacokinetic study after intravenous administration; type: in vivo; conditions: intravenous 10 mg/Kg; for AUC(0-inf) / C0 / Vd / clearance / half-life / k el: rat, plasma; for half-life: read-out: t1/2 β (converted); for k el: read-out: β (elimination rate constant) (converted)
# Description: (§2) Male and female Wistar rats weighting 250 ± 10 g were used. They were housed in animal center of author’s institute. Each rat was housed in a cage which was kept at 25 ± 1 °C temperature and controlled humidity with 12 h light/dark cycle. Animals were fasted overnight before the experiment and had free access to water. The study protocol was approved by the local ethics committee for animal experiments of Shahid Beheshti University of Medical Sciences (Tehran, Iran).
# (§3) The rats (12 male and 12 female) were randomly divided into four groups (6 rats/group) and assigned to receive AZGH 102 solution via intravenous (IV) and/or oral administration. The administered doses in both male and female groups for IV and oral studies were 10 mg/Kg and 20 mg/Kg, respectively. Blood samples were collected from the tail vein immediately prior to (blank sample) and at 0.08, 0.25, 0.5, 1, 2, 4, 6, 8, 10, 21 and 22 h after drug administration into heparinized micro-tubes. Blood samples were centrifuged at 1000 g for 10 min and the separated plasma samples were kept at – 20 °C until analysis.
# (§4) Two-compartmental model was selected and pharmacokinetic analyses were performed using WinNonlin software (Pharsight Corporation, Mountain View, USA, Version 3.2). The following pharmacokinetic parameters were estimated: terminal elimination half-life (t1/2), area under the plasma concentration versus time curve from zero to the infinity (AUC 0-∞), distribution and elimination rate constants (α, β), y intercepts (A, B), volume of distribution (Vd), and total body clearance (CL). The peak plasma concentration (Cmax) and the time to reach Cmax (Tmax) for oral dose were obtained directly from the observed individual plasma concentration-time data.
# [5] = Pharmacokinetic study after oral administration; type: in vivo; conditions: for Cl / Ka / Vd / α (distribution rate constant) / AUC(0-inf) / Cmax / Tmax / half-life / k el: oral 20 mg/Kg; for bioavailability / AUC(0-inf) / Cmax / Tmax / half-life / k el: rat, plasma; for bioavailability: oral 20 mg/Kg vs IV 10 mg/Kg, read-out: F (absolute bioavailability); for half-life: read-out: t1/2 β (converted); for k el: read-out: β (elimination rate constant) (converted)
# Description: as §2, §3, §4
smiles,measurement,setting,value
"CS(=O)(=O)c1ccc(-c2cc(C(=O)O)c3cccc(C(=O)c4ccccc4)c3n2)cc1 [AZGH 102, 8-benzoyl-2-(4-(methylsulfonyl)phenyl)quinoline-4-carboxylic acid]",logP,[1],3.75 ± 0.001
same,solubility,[2],2.7 ± 0.09 µg/mL
same,selectivity index (COX-1/COX-2 inhibitory potency),COX-2,improved selectivity index
same,"Forced tests results, Mean ±SD","[3]; Hydrolysis (Acid), fraction recovered intact",0.94±0.02
same,"Forced tests results, Mean ±SD",[3]; Hydrolysis (Base),0.92±0.01
same,"Forced tests results, Mean ±SD",[3]; Hydrolysis (Buffer pH=7),0.95±0.04
same,"Forced tests results, Mean ±SD",[3]; Oxidative stress (H2O2-3%),0.94±0.02
same,"Forced tests results, Mean ±SD",[3]; Oxidative stress (H2O2-30%),0.90±0.04
same,"Forced tests results, Mean ±SD",[3]; Photodegradation (Acid),0.93±0.02
same,"Forced tests results, Mean ±SD",[3]; Photodegradation (Base),0.96±0.04
same,"Forced tests results, Mean ±SD",[3]; Photodegradation (Buffer pH=7),0.93±0.02
same,"Forced tests results, Mean ±SD",[3]; Thermal Degradation (solid phase),0.95±0.03
same,recovered intact,[3]; in all of the examined stress conditions,more than 90%
same,α (distribution rate constant),[4]; female Wistar rats,3.87 ± 1.11 h⁻¹
same,α (distribution rate constant),[4]; male Wistar rats,2.98 ± 0.67 h⁻¹
same,AUC(0-inf),[4]; female Wistar rats,85800 ± 9230 ng·h/mL
same,C0,[4]; female Wistar rats,100 ± 14.1 µg/mL
same,Vd,[4]; female Wistar rats,0.101 ± 0.0137 L
same,clearance,[4]; female Wistar rats,0.491 mL/min
same,half-life,[4]; female Wistar rats,2.38 ± 0.12 h
same,k el,[4]; female Wistar rats,0.00015 s⁻¹
same,AUC(0-inf),[4]; male Wistar rats,91300 ± 17100 ng·h/mL
same,C0,[4]; male Wistar rats,113 ± 7.99 µg/mL
same,Vd,[4]; male Wistar rats,0.0997 ± 0.0152 L
same,clearance,[4]; male Wistar rats,0.47 mL/min
same,half-life,[4]; male Wistar rats,2.23 ± 0.74 h
same,k el,[4]; male Wistar rats,8.06e-05 s⁻¹
same,Cl,[5]; female Wistar rats,29.15 ± 0.47 mL/h
same,Ka,[5]; female Wistar rats,1.26 ± 0.34 h⁻¹
same,Vd,[5]; female Wistar rats,156.27 ± 4.54 mL
same,α (distribution rate constant),[5]; female Wistar rats,3.70 ± 1.56 h⁻¹
same,Cl,[5]; male Wistar rats,27.47 ± 1.81 mL/h
same,Ka,[5]; male Wistar rats,0.69 ± 0.15 h⁻¹
same,Vd,[5]; male Wistar rats,147.04 ± 9.43 mL
same,α (distribution rate constant),[5]; male Wistar rats,5.79 ± 2.33 h⁻¹
same,bioavailability,[5]; female Wistar rats,25.6 ± 0.4%
same,bioavailability,[5]; male Wistar rats,27 ± 1.85%
same,AUC(0-inf),[5]; female Wistar rats,43900 ± 710 ng·h/mL
same,Cmax,[5]; female Wistar rats,16.5 ± 1.05 µg/mL
same,Tmax,[5]; female Wistar rats,0.5 h
same,half-life,[5]; female Wistar rats,3.72 ± 0.1 h
same,k el,[5]; female Wistar rats,5.28e-05 s⁻¹
same,AUC(0-inf),[5]; male Wistar rats,49300 ± 3380 ng·h/mL
same,Cmax,[5]; male Wistar rats,19.6 ± 1.96 µg/mL
same,Tmax,[5]; male Wistar rats,0.5 h
same,half-life,[5]; male Wistar rats,3.71 ± 0.16 h
same,k el,[5]; male Wistar rats,5.28e-05 s⁻¹
